In brackets after ≈: the same amount, converted by molar mass. Like-named read-outs stand apart in the source and are kept apart here.
What was measured:
[1] = test system: S. aureus RN4220 pRMC2:vanZg; test: MIC, broth microdilution, strain expressing vanZg; type: cell-based, Staphylococcus aureus; conditions: for MIC: S. aureus RN4220 vanZg, broth microdilution, ISO 20776-1, 25 μg/ml chloramphenicol and 100 ng/ml AnhTet, twice in triplicate; for decrease of susceptibility of S. aureus by expression of vanZg: MIC of RN4220 vanZg versus RN4220 pRMC2
Excerpt: (§1) The vanZTei and vanZg genes and their ribosome binding sites were amplified from the plasmid pAT398 ([Arthur et al., 1995]) and E. faecium Aus0004 chromosomal DNA, respectively, using the primers TecVanZ_SacI_F, TecVanZ_R, gVanZ_SacI_F, and gVanZ_R (Supplementary Table S1). The PCR products were cloned into the pRMC2 shuttle vector under the control of the anhydrotetracycline (AnhTet)-inducible promoter Pxyl/tetO using SacI and EcoRI restriction sites, resulting in the constructs pRMC2:vanZTei and pRMC2:vanZg. The constructs were confirmed by sequencing and then electroporated into S. aureus RN4220. Using the same procedure, we prepared the constructs pRMC2:vanZTei-His and pRMC2:vanZg-His encoding C-terminal His-tagged VanZ variants. However, primers TecVanZhis_R and gVanZhis_R replaced the reverse primers TecVanZ_R and gVanZ_R.
(§2) Minimal Inhibitory Concentrations were measured by the broth microdilution method according to ISO standard 20776-1 (EUCAST 2019). S. aureus strains with pRMC2, pRMC2:vanZTei and pRMC2:vanZg plasmids were cultured in the presence of 25 μg/ml chloramphenicol and 100 ng/ml AnhTet (Sigma-Aldrich, Germany) to induce vanZ gene expression. All measurements were performed twice in triplicate. S. aureus ATCC29213 was used as a control. MIC values of clinically accepted glycopeptide antibiotics were interpreted according to EUCAST clinical breakpoints (EUCAST, 2019).

[2] = test system: S. pneumoniae R6 ΔvanZ:vanZ; test: MIC, broth microdilution, vanZ-reverted strain; type: cell-based, Streptococcus pneumoniae
Excerpt: (§3) Strain Sp539 (ΔvanZ) was constructed using a Sweet Janus cassette-based two-step negative selection strategy ([Sung et al., 2001]; [Li et al., 2014]). The Sweet Janus cassette contains the kanamycin resistance gene, the recessive rpsL gene and the sacB gene, which confers sucrose sensitivity (Su^S), as counterselectable markers. In the first step, 1000 bp fragments corresponding to the upstream and downstream flanking regions of the vanZ gene (spr0050) were amplified from the wild-type chromosomal DNA with the primer pairs KB60/KB61 and KB62/KB63, respectively. The Sweet Janus cassette (2807 bp) amplified from the Sweet Janus cassette DNA fragment with the primers DP1/DP2 was attached to the regions flanking vanZ by fusion PCR using primers KB60 and KB63. The resulting PCR fragment was used for the transformation of the S. pneumoniae R6 strain, and Kan^R/Su^S transformants (Sp537, vanZ:kan sacB) were selected. The PCR fragments consisting of the upstream and downstream flanking regions of the vanZ gene were amplified by the KB60/KB65 and KB64/KB63 primer pairs, respectively, and fused by overlap extension using primers KB60/KB63. The resulting fragment was transformed into the Sp537 strain to obtain Sp539 (Su^R/Kan^S). To complement the vanZ deletion, we constructed strain Sp635 (Su^R/Kan^S; ΔvanZ:vanZ) by transforming strain Sp537 (Kan^R/Su^S) with the PCR fragment amplified with the primers KB60 and KB63 that contained wild-type loci using R6 chromosomal DNA as a template.
as §2

S. pneumoniae R6 ΔvanZ = test: MIC, broth microdilution, vanZ knockout; type: cell-based, Streptococcus pneumoniae
Excerpt: as §3, §2

S. aureus ATCC29213 = test: MIC, broth microdilution, control strain; type: cell-based, Staphylococcus aureus; conditions: ISO 20776-1 (EUCAST 2019), performed twice in triplicate
Experimental: as §2

S. aureus RN4220 pRMC2 = test: MIC, broth microdilution, empty vector strain; type: cell-based, Staphylococcus aureus; conditions: ISO 20776-1, 25 μg/ml chloramphenicol and 100 ng/ml AnhTet, twice in triplicate
Excerpt: as §1, §2

[3] = test system: S. aureus RN4220 pRMC2:vanZTei; test: MIC, broth microdilution, strain expressing vanZTei; type: cell-based, Staphylococcus aureus; conditions: for MIC: S. aureus RN4220 vanZTei, broth microdilution, ISO 20776-1, 25 μg/ml chloramphenicol and 100 ng/ml AnhTet, twice in triplicate; for decrease of susceptibility of S. aureus by expression of vanZTei: MIC of RN4220 vanZTei versus RN4220 pRMC2
Excerpt: as §1, §2

S. pneumoniae R6 = test: MIC, broth microdilution, wild type; type: cell-based, Streptococcus pneumoniae; conditions: ISO 20776-1, twice in triplicate
Experimental: as §2

[4] = Staphylococcus aureus, read-out: MIC
[5] = Staphylococcus aureus, ATCC29213, S. aureus ATCC 29213 (control), read-out: MIC
[6] = Staphylococcus aureus, RN4220PRMC2, S. aureus RN4220 pRMC2 (no VanZ), read-out: MIC
[7] = Streptococcus pneumoniae, read-out: MIC
[8] = S. pneumoniae R6 ΔvanZ, broth microdilution, ISO 20776-1, twice in triplicate
[9] = S. pneumoniae R6 ΔvanZ:vanZ (complemented), broth microdilution, ISO 20776-1, twice in triplicate
[10] = S. aureus RN4220 pRMC2 (no VanZ)

Work on `CNC(C)C1CCC(N)C(OC2C(N)CC(N)C(OC3OCC(C)(O)C(NC)C3O)C2O)O1` (centres unmarked) [GEN, gentamicin] yielded an MIC [1, 4] of 1 µg/mL (≈ 2.09 µM), an MIC ([2]; Streptococcus pneumoniae) of 0.25 µg/mL (≈ 0.523 µM) and an MIC (S. pneumoniae R6 ΔvanZ; Streptococcus pneumoniae) of 0.25 µg/mL (≈ 0.523 µM). It also gave an MIC (S. aureus ATCC29213; [5]) of 1 µg/mL (≈ 2.09 µM), an MIC (S. aureus RN4220 pRMC2; [6]) of 1 µg/mL (≈ 2.09 µM) and an MIC [3, 4] of 1 µg/mL (≈ 2.09 µM). It also gave an MIC (S. pneumoniae R6; [7]) of 0.25 µg/mL (≈ 0.523 µM).

In the case of `CC[C@H]1OC(=O)[C@H](C)[C@@H](O[C@H]2C[C@@](C)(OC)[C@@H](O)[C@H](C)O2)[C@H](C)[C@@H](O[C@@H]2O[C@H](C)C[C@H](N(C)C)[C@H]2O)[C@](C)(O)C[C@@H](C)C(=O)[C@H](C)[C@@H](O)[C@]1(C)O` [ERY, erythromycin], the MIC [1, 4] is reported as 0.125 µg/mL (≈ 0.17 µM), the MIC ([2]; Streptococcus pneumoniae) is reported as 0.125 µg/mL (≈ 0.17 µM) and the MIC (S. pneumoniae R6 ΔvanZ; Streptococcus pneumoniae) is reported as 0.125 µg/mL (≈ 0.17 µM). For the same compound, the MIC (S. aureus ATCC29213; [5]) was 0.125 µg/mL (≈ 0.17 µM), the MIC (S. aureus RN4220 pRMC2; [6]) was 0.125 µg/mL (≈ 0.17 µM) and the MIC [3, 4] was 0.125 µg/mL (≈ 0.17 µM). The MIC (S. pneumoniae R6; [7]) was 0.125 µg/mL (≈ 0.17 µM).

In the case of dalbavancin, the “decrease of susceptibility of S. aureus by expression of vanZg” value (“decrease of susceptibility … of vanZg” for short) [1] is reported as “four-fold”, the MIC [1] is reported as 0.5 µg/mL and the MIC (S. pneumoniae R6 ΔvanZ; [8]) is reported as 0.0078 µg/mL. For the same compound, the MIC (S. aureus ATCC29213; S. aureus ATCC 29213 (control)) was 0.125 µg/mL, the “decrease of susceptibility of S. aureus by expression of vanZTei” value (“decrease of susceptibility … of vanZTei” below) [3] was “less or no activity” and the MIC (S. pneumoniae R6) was 0.03125 µg/mL.

In the case of `CC1(C)S[C@@H]2[C@H](NC(=O)C(C(=O)O)c3ccccc3)C(=O)N2[C@H]1C(=O)O` (some centres unmarked) [CARB, carbenicillin], the MIC [1, 4] is reported as 0.25 µg/mL (≈ 0.661 µM), the MIC ([2]; Streptococcus pneumoniae) is reported as 0.0625 µg/mL (≈ 0.165 µM) and the MIC (S. pneumoniae R6 ΔvanZ; Streptococcus pneumoniae) is reported as 0.0625 µg/mL (≈ 0.165 µM). For the same compound, the MIC (S. aureus ATCC29213; [5]) was 0.25 µg/mL (≈ 0.661 µM), the MIC (S. aureus RN4220 pRMC2; [6]) was 0.25 µg/mL (≈ 0.661 µM) and the MIC [3, 4] was 0.25 µg/mL (≈ 0.661 µM). The MIC (S. pneumoniae R6; [7]) was 0.0625 µg/mL (≈ 0.165 µM).

In the case of oritavancin, the “decrease of susceptibility … of vanZg” value [1] is reported as “two times”, the MIC [1] is reported as 0.25 µg/mL and the MIC [2, 9] is reported as 0.0078 µg/mL. For the same compound, the MIC (S. pneumoniae R6 ΔvanZ; [8]) was 0.0039 µg/mL, the MIC (S. aureus ATCC29213; S. aureus ATCC 29213 (control)) was 0.125 µg/mL and the “decrease of susceptibility … of vanZTei” value [3] was “less or no activity”. It also gave an MIC (S. pneumoniae R6) of 0.0078 µg/mL.

For vancomycin, the MIC [1] was 1 µg/mL, the MIC [2, 9] was 0.25 µg/mL and the “sensitivity of the ΔvanZ mutant compared with the wild-type strain” value (S. pneumoniae R6 ΔvanZ; MIC of S. pneumoniae R6 ΔvanZ versus R6) was “not”. For the same compound, the MIC (S. pneumoniae R6 ΔvanZ; [8]) was 0.25 µg/mL, the MIC (S. aureus ATCC29213; S. aureus ATCC 29213 (control)) was 0.25 µg/mL and the MIC (S. aureus RN4220 pRMC2; [10]) was 0.5 µg/mL. The MIC [3] was 0.5 µg/mL and the MIC (S. pneumoniae R6) was 0.25 µg/mL.

In the case of teicoplanin, the “decrease of susceptibility … of vanZg” value [1] is reported as 16 fold, the MIC [1] is reported as 8 µg/mL and the MIC (S. pneumoniae R6 ΔvanZ; [8]) is reported as 0.03125 µg/mL. For the same compound, the MIC (S. aureus ATCC29213; S. aureus ATCC 29213 (control)) was 0.125 µg/mL, the MIC (S. aureus RN4220 pRMC2; [10]) was 0.5 µg/mL and the “decrease of susceptibility … of vanZTei” value [3] was “less or no activity”. It also gave an MIC [3] of 1 µg/mL and an MIC (S. pneumoniae R6) of 0.125 µg/mL.

— PMC7146870, “VanZ Reduces the Binding of Lipoglycopeptide Antibiotics to Staphylococcus aureus and Streptococcus pneumoniae Cells” (Frontiers in Microbiology, 2020)
